Laboratory results from publication PMC9403976, “Elucidating the path to Plasmodium prolyl-tRNA synthetase inhibitors that overcome halofuginone resistance” (Nature Communications, 2022).
Several values for one entry are separate records, joined by “and”; a condition that tells them apart may be missing. Equal entries are not always repeated. Where two headings read alike, the source gives them in different places.

Legend:
[1] = test system: P. falciparum Dd2-2D4; experiment: P. falciparum asexual blood stage (ABS) growth assay, SYBR Green, 72 h, wild-type parasites; format: cell-based, Plasmodium falciparum; conditions: Plasmodium falciparum, DD2; SI Fig 16b; values on -log scale; read-out: ABS - Dd2-2D4 (converted)
[2] = test system: halofuginone-induced P. falciparum (elevated proline homeostasis); experiment: P. falciparum ABS growth assay, SYBR Green, 72 h, halofuginone-induced parasites; format: cell-based, Plasmodium falciparum; conditions: for parasite growth, dose-response point: Halofuginone-Induced (HFG-Induced)
Outline: (§1)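 Dd2-derived erythrocytic-stage parasites at 1% parasitemia and 1% hematocrit in RPMI + 0.5% Albumax were exposed to compounds in triplicate dose-response. Controls were 10 μM dihydroartemisinin (kill) and no-compound wells (growth). Growth was read by SYBR Green 1 fluorescence after 72 h and used to derive EC50.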

[3] = test system: HFGR-I P. falciparum (elevated proline homeostasis and PfcProRS^L482H); experiment: P. falciparum ABS growth assay, SYBR Green, 72 h, HFGR-I parasites; format: cell-based, Plasmodium falciparum; conditions: HFGR-I
Outline: as §1

[4] = biological target: T1, PfcProRS (Plasmodium falciparum, UniProt Q8I5R7); format: binding; conditions: for Normalized response, dose-response replicates (SI Fig 14): replicates 1-3, listed as MAT345 (30)
T1 construct: made in house; host or cells: E. coli SoluBL-21
T1 sequence (Q8I5R7 249-746): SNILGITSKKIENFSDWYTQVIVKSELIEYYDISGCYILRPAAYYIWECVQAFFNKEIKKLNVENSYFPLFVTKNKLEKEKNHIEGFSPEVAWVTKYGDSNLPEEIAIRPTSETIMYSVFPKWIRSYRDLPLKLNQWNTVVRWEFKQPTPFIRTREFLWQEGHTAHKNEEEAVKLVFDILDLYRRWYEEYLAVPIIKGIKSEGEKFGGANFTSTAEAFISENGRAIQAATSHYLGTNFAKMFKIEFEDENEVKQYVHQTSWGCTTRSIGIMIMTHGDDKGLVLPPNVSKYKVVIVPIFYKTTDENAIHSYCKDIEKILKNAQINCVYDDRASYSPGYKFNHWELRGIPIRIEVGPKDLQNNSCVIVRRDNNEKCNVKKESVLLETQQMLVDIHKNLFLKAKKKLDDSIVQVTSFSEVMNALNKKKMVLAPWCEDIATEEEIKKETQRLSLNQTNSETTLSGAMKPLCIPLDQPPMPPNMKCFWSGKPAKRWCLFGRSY

[5] = biological target: HsProRS (Homo sapiens, UniProt P07814); experiment: TR-FRET ligand displacement assay with tracer MAT379 (CoraFluor-1-Halo and anti-His6 antibody formats); format: binding; set-up: made in house; host or cells: E. coli SoluBL-21; conditions: for normalized TR-FRET signal (dose-response replicates): SI Fig 17a
Chain of HsProRS (P07814 996-1512): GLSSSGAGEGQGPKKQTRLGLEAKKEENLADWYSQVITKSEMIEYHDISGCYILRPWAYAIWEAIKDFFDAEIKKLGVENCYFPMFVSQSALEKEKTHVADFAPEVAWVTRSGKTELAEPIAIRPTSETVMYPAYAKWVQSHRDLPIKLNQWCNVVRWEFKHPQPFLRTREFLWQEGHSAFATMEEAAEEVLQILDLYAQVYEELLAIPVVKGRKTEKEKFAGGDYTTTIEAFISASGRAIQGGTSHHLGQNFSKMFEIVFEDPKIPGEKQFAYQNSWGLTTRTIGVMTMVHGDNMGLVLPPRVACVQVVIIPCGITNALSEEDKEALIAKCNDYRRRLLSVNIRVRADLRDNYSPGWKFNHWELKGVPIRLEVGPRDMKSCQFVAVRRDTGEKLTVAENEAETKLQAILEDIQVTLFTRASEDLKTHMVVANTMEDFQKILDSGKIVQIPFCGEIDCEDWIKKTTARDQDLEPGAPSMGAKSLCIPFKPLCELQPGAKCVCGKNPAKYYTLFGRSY

[6] = Log[inhibitor] (M) -5.000, series r16-r27

O=C(NC1Cc2ccccc2C1)c1nccnc1NC(=O)N1CCC(CNC(=O)[C@@H]2CCCN2)CC1 [MAT345]
EC50 [1]: 0.249 µM | parasite growth, dose-response point [2, 6]: 31 and 33 | parasite growth, dose-response point ([2]; Log[inhibitor] (M) -5.408): 83 and 82 and 78 | parasite growth, dose-response point ([2]; Log[inhibitor] (M) -5.816): 97 and 93 and 100 | parasite growth, dose-response point ([2]; Log[inhibitor] (M) -6.222): 102 and 100 | parasite growth, dose-response point ([2]; Log[inhibitor] (M) -6.638): 103 and 100 and 98 | parasite growth, dose-response point ([2]; Log[inhibitor] (M) -7.046): 102 and 103 | parasite growth, dose-response point ([2]; Log[inhibitor] (M) -7.450): 91 and 97 | parasite growth, dose-response point ([2]; Log[inhibitor] (M) -7.854): 96 and 99 | parasite growth, dose-response point ([2]; Log[inhibitor] (M) -8.260): 97 and 101 | parasite growth, dose-response point ([2]; Log[inhibitor] (M) -8.699): 95 and 97 and 96 | parasite growth, dose-response point ([2]; Log[inhibitor] (M) -9.000): 98 and 96 | parasite growth, dose-response point ([2]; Log[inhibitor] (M) -9.488): 97 and 99 | fold decreased activity in halofuginone-induced and HFGR-I parasites ([2]; vs wild-type Dd2-2D4): 20-to-40 fold | parasite growth, dose-response point [3, 6]: 34 and 31 and 27 | parasite growth, dose-response point ([3]; Log[inhibitor] (M) -5.408): 80 and 82 and 78 | parasite growth, dose-response point ([3]; Log[inhibitor] (M) -5.816): 93 and 92 and 94 | parasite growth, dose-response point ([3]; Log[inhibitor] (M) -6.222): 97 and 95 | parasite growth, dose-response point ([3]; Log[inhibitor] (M) -6.638): 101 and 98 and 100 | parasite growth, dose-response point ([3]; Log[inhibitor] (M) -7.046): 98 and 100 | parasite growth, dose-response point ([3]; Log[inhibitor] (M) -7.450): 89 and 95 and 94 | parasite growth, dose-response point ([3]; Log[inhibitor] (M) -7.854): 93 and 91 and 94 | parasite growth, dose-response point ([3]; Log[inhibitor] (M) -8.260): 90 and 93 and 96 | parasite growth, dose-response point ([3]; Log[inhibitor] (M) -8.699): 97 and 94 and 92 | parasite growth, dose-response point ([3]; Log[inhibitor] (M) -9.000): 97 and 96 and 95 | parasite growth, dose-response point ([3]; Log[inhibitor] (M) -9.488): 95 and 102 and 96 | Normalized response, dose-response replicates (SI Fig 14) ([4]; Log[inhibitor] (M) -5.041): 4.37E-03 and 8.51E-02 and 8.45E-02 | Normalized response, dose-response replicates (SI Fig 14) ([4]; Log[inhibitor] (M) -5.342): 1.11E-01 and 8.97E-02 and 2.09E-01 | Normalized response, dose-response replicates (SI Fig 14) ([4]; Log[inhibitor] (M) -5.642): 2.13E-01 and 1.76E-01 and 2.03E-01 | Normalized response, dose-response replicates (SI Fig 14) ([4]; Log[inhibitor] (M) -5.943): 2.11E-01 and 3.53E-01 and 2.89E-01 | Normalized response, dose-response replicates (SI Fig 14) ([4]; Log[inhibitor] (M) -6.244): 5.69E-01 and 4.73E-01 and 4.91E-01 | Normalized response, dose-response replicates (SI Fig 14) ([4]; Log[inhibitor] (M) -6.555): 6.49E-01 and 6.64E-01 and 6.15E-01 | Normalized response, dose-response replicates (SI Fig 14) ([4]; Log[inhibitor] (M) -6.837): 7.67E-01 and 7.12E-01 and 8.75E-01 | Normalized response, dose-response replicates (SI Fig 14) ([4]; Log[inhibitor] (M) -7.149): 8.93E-01 and 9.71E-01 and 9.69E-01 | Normalized response, dose-response replicates (SI Fig 14) ([4]; Log[inhibitor] (M) -7.447): 1.04E+00 and 1.05E+00 and 9.75E-01 | Normalized response, dose-response replicates (SI Fig 14) ([4]; Log[inhibitor] (M) -7.755): 9.28E-01 and 9.14E-01 and 8.72E-01 | Normalized response, dose-response replicates (SI Fig 14) ([4]; Log[inhibitor] (M) -8.041): 1.06E+00 and 9.79E-01 and 1.02E+00 | Normalized response, dose-response replicates (SI Fig 14) ([4]; Log[inhibitor] (M) -8.372): 9.49E-01 and 9.57E-01 and 1.06E+00 | Normalized response, dose-response replicates (SI Fig 14) ([4]; Log[inhibitor] (M) -8.615): 1.07E+00 and 9.05E-01 and 1.02E+00 | Normalized response, dose-response replicates (SI Fig 14) ([4]; Log[inhibitor] (M) -8.916): 1.03E+00 and 9.82E-01 and 1.08E+00 | Normalized response, dose-response replicates (SI Fig 14) ([4]; Log[inhibitor] (M) -9.217): 9.85E-01 and 1.06E+00 and 9.97E-01 | PfcProRS -- best Kd ([4]; SI Fig 16a, values on -log scale): 7.445 | Kd ([5]; HsProRS (KD [nM]) + proline, 100 μM proline, 250 nM MAT379): 282 nM | Kd ([5]; HsProRS - best Kd, SI Fig 16a, values on -log scale): 140 nM | normalised signal, dose-response point (Fig 4d) ([5]; Log[inhibitor] (M) -5.642): 3.24E-02 and 2.70E-02 and 2.05E-02 | normalised signal, dose-response point (Fig 4d) ([5]; Log[inhibitor] (M) -6.244): 1.89E-01 and 2.26E-01 and 2.85E-01 | normalised signal, dose-response point (Fig 4d) ([5]; Log[inhibitor] (M) -6.555): 3.68E-01 and 3.01E-01 and 3.10E-01 | normalised signal, dose-response point (Fig 4d) ([5]; Log[inhibitor] (M) -6.837): 6.02E-01 and 6.04E-01 and 4.91E-01 | normalised signal, dose-response point (Fig 4d) ([5]; Log[inhibitor] (M) -7.149): 6.76E-01 and 6.99E-01 and 6.39E-01 | normalised signal, dose-response point (Fig 4d) ([5]; Log[inhibitor] (M) -7.447): 8.48E-01 and 8.28E-01 and 9.00E-01 | normalised signal, dose-response point (Fig 4d) ([5]; Log[inhibitor] (M) -7.755): 9.14E-01 and 8.69E-01 and 1.05E+00 | normalised signal, dose-response point (Fig 4d) ([5]; Log[inhibitor] (M) -8.041): 9.90E-01 and 1.01E+00 and 9.87E-01 | normalised signal, dose-response point (Fig 4d) ([5]; Log[inhibitor] (M) -8.372): 1.02E+00 and 1.03E+00 and 9.36E-01 | normalised signal, dose-response point (Fig 4d) ([5]; Log[inhibitor] (M) -8.615): 9.70E-01 and 1.01E+00 and 1.11E+00 | normalised signal, dose-response point (Fig 4d) ([5]; Log[inhibitor] (M) -8.916): 9.07E-01 and 1.05E+00 and 9.01E-01 | normalised signal, dose-response point (Fig 4d) ([5]; Log[inhibitor] (M) -9.217): 9.78E-01 and 9.88E-01 and 9.92E-01 | normalized TR-FRET signal (dose-response replicates) ([5]; Log[inhibitor] (M) -5.041): 4.56E-02 and 1.07E-02 and 1.68E-02 | normalized TR-FRET signal (dose-response replicates) ([5]; Log[inhibitor] (M) -5.342): 5.17E-02 and 5.07E-02 and 8.15E-02 | normalized TR-FRET signal (dose-response replicates) ([5]; Log[inhibitor] (M) -5.642): 9.59E-02 and 6.70E-02 and 9.33E-02 | normalized TR-FRET signal (dose-response replicates) ([5]; Log[inhibitor] (M) -5.943): 1.49E-01 and 1.16E-01 and 1.17E-01 | normalized TR-FRET signal (dose-response replicates) ([5]; Log[inhibitor] (M) -6.244): 2.09E-01 and 2.42E-01 and 2.50E-01 | normalized TR-FRET signal (dose-response replicates) ([5]; Log[inhibitor] (M) -6.555): 3.66E-01 and 3.52E-01 and 3.76E-01 | normalized TR-FRET signal (dose-response replicates) ([5]; Log[inhibitor] (M) -6.837): 5.21E-01 and 5.37E-01 and 4.85E-01 | normalized TR-FRET signal (dose-response replicates) ([5]; Log[inhibitor] (M) -7.149): 7.07E-01 and 6.82E-01 and 6.73E-01 | normalized TR-FRET signal (dose-response replicates) ([5]; Log[inhibitor] (M) -7.447): 7.81E-01 and 8.42E-01 and 8.20E-01 | normalized TR-FRET signal (dose-response replicates) ([5]; Log[inhibitor] (M) -7.755): 9.07E-01 and 9.27E-01 and 8.91E-01 | normalized TR-FRET signal (dose-response replicates) ([5]; Log[inhibitor] (M) -8.041): 9.57E-01 and 9.29E-01 and 9.81E-01 | normalized TR-FRET signal (dose-response replicates) ([5]; Log[inhibitor] (M) -8.372): 9.20E-01 and 9.69E-01 and 9.64E-01 | normalized TR-FRET signal (dose-response replicates) ([5]; Log[inhibitor] (M) -8.615): 9.77E-01 and 1.00E+00 and 1.02E+00 | normalized TR-FRET signal (dose-response replicates) ([5]; Log[inhibitor] (M) -8.916): 9.89E-01 and 9.48E-01 and 9.78E-01 | normalized TR-FRET signal (dose-response replicates) ([5]; Log[inhibitor] (M) -9.217): 1.04E+00 (2×) and 1.05E+00
